The nature of assay [1]: HEp-2 cell cytotoxicity, dose response, cytotoxicity control for RSV inhibitor project, HTS (AID 2410). It is filed as functional. Conditions: human respiratory syncytial virus.
Assay [2] has as its target Voltage-dependent T-type calcium channel subunit alpha-1H (Homo sapiens, UniProt O95180). It is filed as functional.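 Note: channel activity triggered by adding a high calcium stimulation buffer.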
Another assay deals with Cytochrome P450 2C19 (Homo sapiens, UniProt P33261). Put plainly: Cytochrome panel assay with activity outcomes. Panel member name: p450-cyp2c19 Compounds with AC50 equal or less than 10 uM are considered active. It is filed as functional. Conditions: read-out: AC50.
The target in the next assay is Cytochrome P450 2D6 (Homo sapiens, UniProt P10635).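 Note: CYP2D6 member of a cytochrome P450 panel assay.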
For another assay, the target named is T1, Cytochrome P450 1A2 (Homo sapiens, UniProt P05177).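 Note: PubChem cytochrome P450 panel assay, CYP1A2 panel member.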
T1 sequence (P05177 whole entry): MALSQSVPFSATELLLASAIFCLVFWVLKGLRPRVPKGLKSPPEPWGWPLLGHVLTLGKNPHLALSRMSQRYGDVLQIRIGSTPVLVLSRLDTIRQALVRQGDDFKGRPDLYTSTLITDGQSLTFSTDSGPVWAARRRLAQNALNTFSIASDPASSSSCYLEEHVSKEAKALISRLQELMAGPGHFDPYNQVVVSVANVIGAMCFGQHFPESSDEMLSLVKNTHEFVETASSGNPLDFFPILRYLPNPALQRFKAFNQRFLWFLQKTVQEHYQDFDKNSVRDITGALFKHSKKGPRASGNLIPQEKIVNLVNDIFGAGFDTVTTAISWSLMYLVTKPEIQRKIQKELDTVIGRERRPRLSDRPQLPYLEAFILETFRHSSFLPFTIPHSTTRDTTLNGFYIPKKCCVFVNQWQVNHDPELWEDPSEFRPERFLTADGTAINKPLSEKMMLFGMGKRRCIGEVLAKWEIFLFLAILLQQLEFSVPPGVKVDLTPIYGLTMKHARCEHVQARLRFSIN

A further assay concerns the target Cytochrome P450 2C9 (Homo sapiens, UniProt P11712).
The target in assay [3] is T2, E3 ubiquitin-protein ligase XIAP (Homo sapiens, UniProt P98170). The assay can be described thus: Counter Screen using XIAP-Bir3 for Chemical Antagonists of Bir1/2 domains of IAP-family anti-apoptotic proteins. [Related pubchem assays (depositor defined):AID1018, AID1449, AID1514, AID1638, AID1749, AID1750, AID488957, AID488963]. Background: The purpose of a counterscreen is to sort out artefacts and off-target activity.

The target of assay [4] is T2, E3 ubiquitin-protein ligase XIAP. The assay can be described thus: XIAP antagonists, biochemical, IAP family, fluorescence polarization (AID 1018). It is filed as functional. (Polarisation of emitted light reports the rotation of a fluorescent probe.)
Assay [5] has as its target T3, RNA-binding protein pos-1 (Caenorhabditis elegans, UniProt G5EF15).
T3 sequence (G5EF15 whole entry): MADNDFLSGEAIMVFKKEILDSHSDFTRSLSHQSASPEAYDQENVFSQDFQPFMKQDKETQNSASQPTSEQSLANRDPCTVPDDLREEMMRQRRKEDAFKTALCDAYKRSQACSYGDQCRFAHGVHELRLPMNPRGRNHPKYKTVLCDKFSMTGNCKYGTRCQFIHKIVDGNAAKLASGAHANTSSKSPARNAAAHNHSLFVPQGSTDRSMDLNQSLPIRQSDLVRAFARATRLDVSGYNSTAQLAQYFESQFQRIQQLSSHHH
The assay can be described thus: inhibitors of POS-1/mex-3 RNA binding, dose response, biochemical, fluorescence polarization (AID 1964).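 Note: purified POS-1 fused to maltose binding protein made in E. coli; potency of compounds blocking POS-1 binding to fluorescent RNA.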

The target of assay [6] is T4, Zinc finger protein mex-5 (Caenorhabditis elegans, UniProt Q9XUB2).
T4 sequence (Q9XUB2 whole entry): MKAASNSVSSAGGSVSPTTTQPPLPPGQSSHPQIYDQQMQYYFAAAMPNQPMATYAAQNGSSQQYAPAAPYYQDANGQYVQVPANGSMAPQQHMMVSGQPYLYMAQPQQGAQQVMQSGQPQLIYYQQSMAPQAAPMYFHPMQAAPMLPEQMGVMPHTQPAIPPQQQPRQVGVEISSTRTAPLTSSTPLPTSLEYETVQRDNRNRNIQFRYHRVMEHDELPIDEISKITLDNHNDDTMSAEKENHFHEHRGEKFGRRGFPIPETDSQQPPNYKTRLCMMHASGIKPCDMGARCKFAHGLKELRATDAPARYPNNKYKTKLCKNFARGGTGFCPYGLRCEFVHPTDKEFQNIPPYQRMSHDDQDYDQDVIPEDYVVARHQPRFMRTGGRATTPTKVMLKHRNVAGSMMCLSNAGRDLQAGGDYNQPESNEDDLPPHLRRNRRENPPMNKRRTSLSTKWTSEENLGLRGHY
The assay can be described thus: MEX-5/TCR-2 RNA interaction inhibitors, dose response, biochemical, C. elegans, fluorescence polarization (AID 1960).

Assay [7] addresses T5, Endoribonuclease toxin MazF (Escherichia coli K-12, UniProt P0AE70).
T5 sequence (P0AE70 whole entry): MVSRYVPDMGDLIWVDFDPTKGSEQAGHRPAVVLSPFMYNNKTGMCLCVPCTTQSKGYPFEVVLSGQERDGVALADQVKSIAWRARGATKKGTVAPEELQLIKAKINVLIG
Put plainly: MazF toxin RNase activators, dose response, biochemical, fluorescence, single-stranded RNA substrate, uHTS hits (AID 588481). It is filed as functional.

Assay [8] addresses T5, Endoribonuclease toxin MazF. Put plainly: fluorescent RNA oligo signal without MazF, dose response, counter-screen for MazEF activator project, biochemical, fluorescence, single-stranded RNase substrate (AID 588502). It is filed as functional.
The target in assay [9] is T6, Corticotropin-releasing factor receptor 2/Corticotropin-releasing factor-binding protein (Homo sapiens, UniProt P24387+Q13324).
T6 sequence (Q13324 whole entry): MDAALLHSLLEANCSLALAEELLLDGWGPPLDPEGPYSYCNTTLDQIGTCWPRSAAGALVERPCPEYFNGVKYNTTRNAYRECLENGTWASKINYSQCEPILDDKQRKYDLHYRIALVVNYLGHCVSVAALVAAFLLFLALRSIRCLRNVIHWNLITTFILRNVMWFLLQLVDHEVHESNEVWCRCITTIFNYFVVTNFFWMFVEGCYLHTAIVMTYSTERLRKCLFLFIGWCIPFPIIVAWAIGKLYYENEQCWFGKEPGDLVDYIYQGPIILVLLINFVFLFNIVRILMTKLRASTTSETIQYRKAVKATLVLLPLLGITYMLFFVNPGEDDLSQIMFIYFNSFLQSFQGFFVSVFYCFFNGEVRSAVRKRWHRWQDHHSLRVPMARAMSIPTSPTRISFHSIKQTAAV
T6 sequence (P24387 whole entry): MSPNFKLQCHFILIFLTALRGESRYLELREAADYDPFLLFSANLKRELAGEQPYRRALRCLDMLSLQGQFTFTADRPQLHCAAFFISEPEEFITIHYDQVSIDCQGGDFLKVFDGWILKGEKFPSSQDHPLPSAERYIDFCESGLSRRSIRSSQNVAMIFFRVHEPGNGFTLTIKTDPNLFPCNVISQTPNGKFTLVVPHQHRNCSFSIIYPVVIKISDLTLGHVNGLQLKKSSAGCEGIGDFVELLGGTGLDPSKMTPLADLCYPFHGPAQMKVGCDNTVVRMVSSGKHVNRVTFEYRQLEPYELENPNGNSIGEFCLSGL
The assay can be described thus: activators of CRF receptor 2 with binding protein – uHTS hits, confirmation (AID 602473). It is filed as functional. Conditions: read-out: EC50_Mean.

Assay [10] addresses T7, DNA repair protein RAD52 homolog (Homo sapiens, UniProt P43351).
T7 sequence (P43351 whole entry): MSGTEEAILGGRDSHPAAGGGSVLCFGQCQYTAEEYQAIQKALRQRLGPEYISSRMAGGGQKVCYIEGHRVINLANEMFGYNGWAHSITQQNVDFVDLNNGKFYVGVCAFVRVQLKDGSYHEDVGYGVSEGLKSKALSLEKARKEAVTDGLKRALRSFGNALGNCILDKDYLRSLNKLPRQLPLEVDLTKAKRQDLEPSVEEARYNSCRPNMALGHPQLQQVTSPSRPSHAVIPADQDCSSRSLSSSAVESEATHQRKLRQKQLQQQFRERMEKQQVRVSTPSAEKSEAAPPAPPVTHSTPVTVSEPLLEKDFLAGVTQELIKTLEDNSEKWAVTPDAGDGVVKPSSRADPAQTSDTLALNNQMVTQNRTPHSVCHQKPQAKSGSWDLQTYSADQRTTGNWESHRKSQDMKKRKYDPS
It is filed as functional, biochemical.

Assay [11] deals with T8, Histone-lysine N-methyltransferase NSD2 (Homo sapiens, UniProt O96028).
T8 sequence (O96028 whole entry): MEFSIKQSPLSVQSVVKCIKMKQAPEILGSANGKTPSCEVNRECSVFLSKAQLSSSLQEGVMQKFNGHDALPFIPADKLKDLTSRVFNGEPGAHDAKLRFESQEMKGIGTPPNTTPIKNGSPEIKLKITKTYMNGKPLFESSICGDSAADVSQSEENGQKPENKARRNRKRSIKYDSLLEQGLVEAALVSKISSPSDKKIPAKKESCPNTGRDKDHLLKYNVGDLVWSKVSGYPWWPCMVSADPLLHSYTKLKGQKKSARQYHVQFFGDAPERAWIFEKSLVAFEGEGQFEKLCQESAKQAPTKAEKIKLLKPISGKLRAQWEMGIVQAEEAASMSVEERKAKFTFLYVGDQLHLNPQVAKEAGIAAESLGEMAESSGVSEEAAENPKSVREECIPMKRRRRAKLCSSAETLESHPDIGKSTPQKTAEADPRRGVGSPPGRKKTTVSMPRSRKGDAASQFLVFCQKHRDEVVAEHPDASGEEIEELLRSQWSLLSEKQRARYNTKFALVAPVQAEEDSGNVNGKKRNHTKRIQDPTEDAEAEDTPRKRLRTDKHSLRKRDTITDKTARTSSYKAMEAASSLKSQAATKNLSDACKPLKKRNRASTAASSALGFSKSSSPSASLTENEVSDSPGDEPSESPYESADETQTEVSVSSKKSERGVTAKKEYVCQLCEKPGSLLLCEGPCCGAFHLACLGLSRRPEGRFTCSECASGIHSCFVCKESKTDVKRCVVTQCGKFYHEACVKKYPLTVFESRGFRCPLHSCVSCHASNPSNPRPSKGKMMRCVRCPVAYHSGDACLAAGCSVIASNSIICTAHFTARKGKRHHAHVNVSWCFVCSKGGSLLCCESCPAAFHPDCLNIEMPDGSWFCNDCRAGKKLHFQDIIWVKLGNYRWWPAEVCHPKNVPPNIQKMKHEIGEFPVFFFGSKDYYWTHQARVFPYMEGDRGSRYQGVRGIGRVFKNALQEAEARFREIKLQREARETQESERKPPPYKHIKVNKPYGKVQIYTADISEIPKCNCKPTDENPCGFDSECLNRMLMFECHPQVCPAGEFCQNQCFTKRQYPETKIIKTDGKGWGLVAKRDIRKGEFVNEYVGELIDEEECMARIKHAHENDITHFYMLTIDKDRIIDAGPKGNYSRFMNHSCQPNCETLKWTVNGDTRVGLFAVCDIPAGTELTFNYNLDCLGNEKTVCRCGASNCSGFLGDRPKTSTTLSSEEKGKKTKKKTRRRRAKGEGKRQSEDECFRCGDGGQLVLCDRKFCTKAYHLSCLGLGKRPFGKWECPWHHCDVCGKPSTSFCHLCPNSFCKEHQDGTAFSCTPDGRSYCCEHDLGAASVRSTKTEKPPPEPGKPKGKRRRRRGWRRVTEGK
It is filed as biochemical.

The source made the active and inactive calls.

T2 sequence (P98170 whole entry): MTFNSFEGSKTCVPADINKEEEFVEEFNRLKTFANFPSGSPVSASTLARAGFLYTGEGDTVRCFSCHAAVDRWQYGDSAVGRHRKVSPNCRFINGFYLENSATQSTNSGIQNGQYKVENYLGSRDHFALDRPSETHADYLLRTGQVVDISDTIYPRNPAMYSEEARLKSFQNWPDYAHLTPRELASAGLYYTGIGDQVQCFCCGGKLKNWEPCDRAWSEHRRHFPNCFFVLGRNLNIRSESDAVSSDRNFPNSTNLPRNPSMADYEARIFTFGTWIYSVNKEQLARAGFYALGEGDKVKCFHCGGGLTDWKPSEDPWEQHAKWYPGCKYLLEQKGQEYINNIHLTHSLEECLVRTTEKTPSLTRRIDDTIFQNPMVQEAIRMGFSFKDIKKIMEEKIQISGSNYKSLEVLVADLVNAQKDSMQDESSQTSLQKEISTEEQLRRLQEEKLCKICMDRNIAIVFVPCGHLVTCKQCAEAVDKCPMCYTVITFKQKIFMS
Cytochrome P450 2D6, sequence (P10635 whole entry): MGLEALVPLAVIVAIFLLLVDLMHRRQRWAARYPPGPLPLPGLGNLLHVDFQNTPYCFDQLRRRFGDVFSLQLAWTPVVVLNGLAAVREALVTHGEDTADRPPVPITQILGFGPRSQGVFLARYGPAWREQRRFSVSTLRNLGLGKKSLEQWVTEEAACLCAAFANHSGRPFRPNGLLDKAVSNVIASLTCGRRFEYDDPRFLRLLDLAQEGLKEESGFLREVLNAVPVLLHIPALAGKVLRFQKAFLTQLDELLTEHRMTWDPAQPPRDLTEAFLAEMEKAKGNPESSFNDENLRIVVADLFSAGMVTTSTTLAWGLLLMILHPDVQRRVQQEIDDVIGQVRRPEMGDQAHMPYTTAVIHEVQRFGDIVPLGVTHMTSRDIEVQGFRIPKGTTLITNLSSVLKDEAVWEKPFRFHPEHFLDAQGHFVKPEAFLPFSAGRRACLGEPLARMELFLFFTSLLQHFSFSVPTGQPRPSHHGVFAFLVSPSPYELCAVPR
Cytochrome P450 2C9, sequence (P11712 whole entry): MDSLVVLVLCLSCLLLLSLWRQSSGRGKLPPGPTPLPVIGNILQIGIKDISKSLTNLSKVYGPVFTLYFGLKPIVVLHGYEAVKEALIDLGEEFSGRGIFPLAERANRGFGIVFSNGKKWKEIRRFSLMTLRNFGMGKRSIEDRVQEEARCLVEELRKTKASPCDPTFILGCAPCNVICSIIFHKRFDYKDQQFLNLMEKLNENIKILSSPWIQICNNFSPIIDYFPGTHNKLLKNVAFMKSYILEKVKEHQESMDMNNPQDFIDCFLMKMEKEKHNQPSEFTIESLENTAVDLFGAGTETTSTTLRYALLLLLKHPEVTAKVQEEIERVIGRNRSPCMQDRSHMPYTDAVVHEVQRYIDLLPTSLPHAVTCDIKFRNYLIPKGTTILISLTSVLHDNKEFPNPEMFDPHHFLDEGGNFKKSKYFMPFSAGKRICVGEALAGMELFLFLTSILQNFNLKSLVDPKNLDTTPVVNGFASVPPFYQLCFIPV
Voltage-dependent T-type calcium channel subunit alpha-1H, sequence (O95180 whole entry): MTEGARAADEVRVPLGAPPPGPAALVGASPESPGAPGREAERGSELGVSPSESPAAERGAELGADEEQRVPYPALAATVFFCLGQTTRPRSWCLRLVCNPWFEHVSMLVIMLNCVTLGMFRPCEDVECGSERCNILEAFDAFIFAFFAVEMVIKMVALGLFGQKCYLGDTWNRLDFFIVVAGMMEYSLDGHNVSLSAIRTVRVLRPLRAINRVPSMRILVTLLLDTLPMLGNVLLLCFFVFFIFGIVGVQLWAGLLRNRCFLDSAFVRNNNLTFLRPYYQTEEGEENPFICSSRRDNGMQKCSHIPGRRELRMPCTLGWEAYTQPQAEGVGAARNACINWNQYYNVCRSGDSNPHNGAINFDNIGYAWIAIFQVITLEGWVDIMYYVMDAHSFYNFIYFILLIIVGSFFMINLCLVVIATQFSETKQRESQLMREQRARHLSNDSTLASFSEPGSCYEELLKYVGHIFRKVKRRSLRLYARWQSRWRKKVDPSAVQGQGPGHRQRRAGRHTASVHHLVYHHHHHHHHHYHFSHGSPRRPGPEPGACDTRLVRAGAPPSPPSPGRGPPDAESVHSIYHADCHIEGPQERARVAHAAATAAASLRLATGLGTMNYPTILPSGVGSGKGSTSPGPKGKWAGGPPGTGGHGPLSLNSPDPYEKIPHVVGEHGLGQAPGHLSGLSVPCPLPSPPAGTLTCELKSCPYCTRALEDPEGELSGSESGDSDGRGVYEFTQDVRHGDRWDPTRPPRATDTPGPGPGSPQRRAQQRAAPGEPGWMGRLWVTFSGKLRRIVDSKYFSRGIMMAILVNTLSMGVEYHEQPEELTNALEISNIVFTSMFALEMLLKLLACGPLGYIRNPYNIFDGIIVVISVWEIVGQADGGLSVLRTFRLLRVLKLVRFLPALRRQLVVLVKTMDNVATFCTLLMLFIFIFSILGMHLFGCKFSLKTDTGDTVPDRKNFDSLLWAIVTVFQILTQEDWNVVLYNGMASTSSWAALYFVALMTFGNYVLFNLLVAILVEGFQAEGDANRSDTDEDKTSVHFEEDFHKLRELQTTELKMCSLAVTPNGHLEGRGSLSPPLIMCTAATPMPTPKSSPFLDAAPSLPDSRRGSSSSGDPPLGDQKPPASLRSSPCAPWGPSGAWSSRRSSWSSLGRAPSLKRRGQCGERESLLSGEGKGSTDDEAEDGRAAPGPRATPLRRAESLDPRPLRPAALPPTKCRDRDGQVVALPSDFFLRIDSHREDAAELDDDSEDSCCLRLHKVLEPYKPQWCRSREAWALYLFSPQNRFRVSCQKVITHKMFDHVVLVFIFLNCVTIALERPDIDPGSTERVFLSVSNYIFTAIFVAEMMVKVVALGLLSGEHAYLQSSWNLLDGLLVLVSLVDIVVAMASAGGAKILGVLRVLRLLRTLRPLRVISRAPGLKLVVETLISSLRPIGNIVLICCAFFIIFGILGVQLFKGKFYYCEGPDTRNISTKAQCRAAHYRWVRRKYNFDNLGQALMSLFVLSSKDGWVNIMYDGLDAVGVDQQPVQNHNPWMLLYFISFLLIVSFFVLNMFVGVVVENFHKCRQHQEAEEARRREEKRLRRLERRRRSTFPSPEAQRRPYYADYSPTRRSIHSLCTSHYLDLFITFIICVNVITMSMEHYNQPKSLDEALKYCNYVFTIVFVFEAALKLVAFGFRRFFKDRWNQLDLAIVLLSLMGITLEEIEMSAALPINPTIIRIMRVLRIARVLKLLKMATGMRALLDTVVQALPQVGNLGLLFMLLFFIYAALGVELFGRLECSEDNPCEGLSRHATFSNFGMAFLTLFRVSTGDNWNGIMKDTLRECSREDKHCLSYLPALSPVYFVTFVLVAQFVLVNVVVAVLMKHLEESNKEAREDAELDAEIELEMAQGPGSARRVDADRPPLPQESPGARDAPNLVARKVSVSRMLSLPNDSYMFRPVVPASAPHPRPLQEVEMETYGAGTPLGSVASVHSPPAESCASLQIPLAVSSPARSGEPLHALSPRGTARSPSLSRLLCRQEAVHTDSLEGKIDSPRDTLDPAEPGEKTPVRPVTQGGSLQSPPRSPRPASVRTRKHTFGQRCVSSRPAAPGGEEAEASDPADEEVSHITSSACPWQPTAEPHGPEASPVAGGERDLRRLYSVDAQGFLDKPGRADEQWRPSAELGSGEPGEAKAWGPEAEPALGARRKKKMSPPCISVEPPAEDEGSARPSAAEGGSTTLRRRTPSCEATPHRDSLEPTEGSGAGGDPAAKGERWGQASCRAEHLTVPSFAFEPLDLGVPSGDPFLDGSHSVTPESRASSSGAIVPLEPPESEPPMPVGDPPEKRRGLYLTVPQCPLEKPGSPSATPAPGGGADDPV
Cytochrome P450 2C19, sequence (P33261 whole entry): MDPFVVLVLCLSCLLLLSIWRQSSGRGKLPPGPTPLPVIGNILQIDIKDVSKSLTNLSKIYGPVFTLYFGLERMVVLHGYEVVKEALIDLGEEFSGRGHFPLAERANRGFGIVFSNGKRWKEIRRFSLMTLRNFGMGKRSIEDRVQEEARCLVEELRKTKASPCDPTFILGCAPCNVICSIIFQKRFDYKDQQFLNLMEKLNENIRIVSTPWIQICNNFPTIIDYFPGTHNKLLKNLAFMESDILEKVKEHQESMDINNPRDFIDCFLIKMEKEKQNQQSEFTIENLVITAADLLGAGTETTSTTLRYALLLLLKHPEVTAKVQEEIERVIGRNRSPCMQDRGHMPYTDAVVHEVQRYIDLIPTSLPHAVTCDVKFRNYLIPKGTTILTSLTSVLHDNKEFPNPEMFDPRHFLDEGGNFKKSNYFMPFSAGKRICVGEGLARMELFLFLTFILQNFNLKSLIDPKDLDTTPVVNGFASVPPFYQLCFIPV

Usually CC50 stands for the concentration that lowers cell viability or growth by half. As a reminder, the AC50 is the concentration at which the activity in the assay is half-maximal. Take `Cc1ccc2[nH]c(SCc3ccc([N+](=O)[O-])cc3)nc2c1`: in assay [1], the 50% cytotoxic concentration (CC50) is 13.6 µM (active). Moreover, the EC50 in [2] was 4.41 µM (active). Also, the AC50 was 0.794 µM (active) on Cytochrome P450 2C19, 5.01 µM (active) on Cytochrome P450 2D6, 1.12 µM (active) on Cytochrome P450 1A2 and 3.55 µM (active) at Cytochrome P450 2C9.

What is called IC50 is the concentration needed to halve the response being measured. With `COC(=O)c1cc2sccc2n1Cc1nc(-c2cccc(Cl)c2)oc1C`, the IC50 was > 100 µM (inactive) in assay [3] and > 100 µM (not active) in assay [4].

Regarding `CC1(C(=O)N(c2ccccc2)C(C(=O)NC2CCCC2)c2ccccn2)CC(=O)N=C2C=CC=CN21` (stereo not given), the IC50 in [3] is > 100 µM (inactive); in assay [4], > 100 µM (not active).

In the case of `Cc1cc(O)nc(NN=C(CC(C)C)CC(C)C)n1`, the results for the IC50 in assay [3] and in assay [4] were > 100 µM (inactive) and > 100 µM (not active), respectively.

Consider `CC1=CC(=C2N=C(c3ccccc3)OC2=O)C=C(C)O1`, for which the EC50 in assay [5] is 142 µM (inconclusive); in [6], 12.3 µM (inconclusive); in assay [7], > 99 µM (inactive); in assay [8] it was > 99 µM (inactive).

For `Cn1cc(C=C2C(=O)NC(=O)NC2=O)c2ccccc21`, the EC50 in assay [5] is 6.99 µM (inconclusive); in assay [6], 5.82 µM (inconclusive); in [7] it was > 99 µM (inactive); in [8] it was 21.1 µM (inactive); in assay [9], 24.1 µM (active).

As for `CSc1nc(NCCCN(C)C)c2c3c(sc2n1)CN(C)CC3`, the half-maximal activity concentration (AC50) in assay [10] is 10.1 µM (active).

With `Cc1ccc2c(c1)NC(=O)C(CC(=O)O)O2` (stereo not given), the IC50 was > 100 µM (inactive) in assay [3] and > 100 µM (not active) in assay [4].

As for `COCCN=C(S)Nc1ccc2nc(N3CCN(C)CC3)cc(C)c2c1`, the half-maximal activity concentration (AC50) in assay [10] was 13.2 µM (active).

For the molecule `O=C(COc1cccc2ccccc12)NNC(=O)CSCCO`, the values for the IC50 in [3] and in assay [4] were > 100 µM (inactive) and > 100 µM (not active), respectively.

As to `COC(=O)c1ccccc1NC(=O)Cn1cnc2c(cnn2-c2ccccc2)c1=O`, the EC50 in assay [7] and in assay [8] was > 99 µM (inactive) each time.

In the case of `Oc1ccccc1C=NN=Cc1c(O)ccc2ccccc12`, the EC50 in assay [7] is > 99 µM (inactive); in assay [8] it was > 99 µM (inactive); in assay [9], 5.17 µM (active).

On to `Clc1cccc(/C(Cc2nc3ccccc3[nH]2)=N\Nc2ccccc2)c1`, for which the EC50 in assay [7] and in assay [8] was > 99 µM (inactive) throughout.

On to `O=C(NCC1CC1)c1ccc(-n2ccnc2)c2ccoc12`, for which the AC50 in [11] was 14.1 µM (active).

Source of the values: ChEMBL document CHEMBL1201862, “PubChem BioAssay data set” (2004).
